Values of other authors as cited in PMC11125331, “Pharmaceutical Compounding in Veterinary Medicine: Suspension of Itraconazole” (Pharmaceutics, 2024).
Read-outs that look alike come from different tables or passages of the source. One block for each compound: values may come before it.

Assays:
[1] = test system: dogs; design: method as in PMID 35245984, PMID 34109637; details: orally at 10 mg/kg
[2] = test system: cats; design: method as in PMID 35245984, PMID 34109637; details: punctual administrations
[3] = design: method as in PMID 28627123
[4] = test system: dogs; design: method as in earlier work

Compound: polysorbate 80
Adverse effects [1]: produces cardiovascular changes and hypersensitivity effects | Safety [2]: safe

Concentration in skin and hair relative to plasma levels [3]: ten times higher than plasma levels | Biopharmaceutical Classification System class: class II | log P (n-octanol/water) (at pH 8.1): 5.66 | Solubility (in 0.1 M chlorhydric acid (HCl)): 4 to 6 µg/mL | Solubility (in water): 0.001 to 0.004 µg/mL
Compound: CCC(C)n1ncn(-c2ccc(N3CCN(c4ccc(OCC5COC(Cn6cncn6)(c6ccc(Cl)cc6Cl)O5)cc4)CC3)cc2)c1=O (centres unmarked) [Itraconazole]

Compound: OC[C@@H](O)[C@H](O)[C@@H](O)CO [xylitol]
Adverse effects [4]: can cause severe hypoglycemia
